Assay results reported in US5736510A, “Antibiotics 10381v, w, x,y, z1, z2, pre-b and t” (priority 1996, dated 1998).
Where two headings read alike, the source gives them in different places.

What was measured:
Type in all cases: cell-based
M. elsdenii = details: strain B159; for Minimal Inhibitory Concentration (bioactivity data): Table IV (separate study)
S. bovis = details: strain JB1; for Minimal Inhibitory Concentration (bioactivity data): Table IV (separate study)
S. hyodysenteriae = test system: S. hyodysenteriae; design: unit not given here; details: Table IV (separate study)
Description: (§1) The assay measures the ability of a compound to inhibit the growth of certain types of anaerobic bacteria which normally inhabit the gut of poultry, swine or cattle.
(§2) Two mg/ml solutions of the drugs to be tested are made in 10% v/v ethanol/water. This stock is then diluted to one mg per ml and then further diluted through a series of ten-two fold dilutions. At each concentration an aliquot is placed in a sterile petri plate. Nine volumes of molten agar are then added to each plate, mixed and allowed to harden at room temperature. These plates are then transferred to a Coy chamber and allowed to dry and equilibrate with the oxygen free atmosphere.
(§3) Organisms used for MIC testing are inoculated into broth media, and incubated 18-24 h at 39° C. prior to use. The cultures are then diluted to equal the turbidity of a 0.5 MacFarland barium sulfate standard, except for the porcine isolates P108-3C1, P105-1C3 and P105-1C4 which are diluted 1:1. All inoculations and dilutions are performed in the anaerobic chamber using broth media and syringe transfer through the butyl robber stoppers.
(§4) Freshly prepared and diluted cultures are loaded into the wells of a Steers replicator device. This apparatus can dispense ca 10 μl of each of 32 cultures onto the surface of the preincubated agar plates. One hour after the inoculation, the inoculum will have been absorbed and the plates are inverted and incubated at 38°-39° C. for 48 h. Plates are then removed from the chamber and the MIC for the test compounds determined. MIC's are reported as the lowest concentration of a compound which prevented detectable growth of a test organism on the agar plates. […] Thus, each set of test plates yields individual MIC values for each of the 32 test organisms.

S. ruminantium = details: for Minimal Inhibitory Concentration (bioactivity data): Table IV (separate study); for M.I.C.: Table III, mass basis, no correction for purity
P. ruminicola = details: strain 118B; for Minimal Inhibitory Concentration (bioactivity data): Table IV (separate study)
E. lentum = details: strain L-34; Table IV (separate study)
[1] = test system: anaerobic bacteria which normally inhabit the gut of poultry, swine or cattle; test: in vitro MIC assay, overall comparison of components across the test organisms; details: conclusion from Tables III and IV
Description: as §1, §2, §3, §4

S. faecalis = details: for Minimal Inhibitory Concentration (bioactivity data): Table IV (separate study); for M.I.C.: Table III, mass basis, no correction for purity
C. perfringens = test system: C. perfringens; design: Minimal Inhibitory Concentration (bioactivity data): unit not given here; details: for Minimal Inhibitory Concentration (bioactivity data): Table IV (separate study); for M.I.C.: Table III, mass basis, no correction for purity
E. ruminantium = details: strain GA195; for Minimal Inhibitory Concentration (bioactivity data): Table IV (separate study)
R. flavefaciens = details: for Minimal Inhibitory Concentration (bioactivity data): Table IV (separate study); for M.I.C.: Table III, mass basis, no correction for purity
R. amylophilus = details: strain H18; for Minimal Inhibitory Concentration (bioactivity data): Table IV (separate study)
B. fibrisolvens = details: for Minimal Inhibitory Concentration (bioactivity data): Table IV (separate study); for M.I.C.: Table III, mass basis, no correction for purity
F. necrophorum = details: for Minimal Inhibitory Concentration (bioactivity data): Table IV (separate study); for M.I.C.: Table III, mass basis, no correction for purity
B. thetaiotaomicron = details: strain UC9014; for Minimal Inhibitory Concentration (bioactivity data): Table IV (separate study)
Description: as §1, §2, §3, §4

B. fragilis = details: strain UC9370; for Minimal Inhibitory Concentration (bioactivity data): Table IV (separate study)
L. multiparus = details: strain 40; for Minimal Inhibitory Concentration (bioactivity data): Table IV (separate study)
[2] = Table III, mass basis, no correction for purity

In the case of `C=C1NC(=O)c2nc(oc2C)C(=CC)NC(=O)c2csc(n2)C(OC)NC(=O)c2nc(oc2C)C(=CC(C)O)NC(=O)C(C(C)O)NC(=O)c2csc(n2)-c2ccc(C(N)=O)nc2-c2coc(n2)C(=C)NC1=O` (centres unmarked) [Antibiotic 10381v], the “Minimal Inhibitory Concentration (bioactivity data)” value (shortened to “Minimal Inhibitory Concentration”) (M. elsdenii) is reported as > 100, the “Minimal Inhibitory Concentration” value (S. bovis) is reported as > 100 and the “Minimal Inhibitory Concentration” value (S. hyodysenteriae; strain 16-4) is reported as > 100. The “Minimal Inhibitory Concentration” value (S. hyodysenteriae; strain B204) was > 100, the “Minimal Inhibitory Concentration” value (S. ruminantium; strain GA31) was 25.0 and the “Minimal Inhibitory Concentration” value (S. ruminantium; strain GA192) was 100. For the same compound, the “Minimal Inhibitory Concentration” value (P. ruminicola) was < 0.2, the “Minimal Inhibitory Concentration” value (E. lentum) was 25.0 and the “in vitro activity ranking of the individual components” value (“in vitro activity ranking” below) [1] was “considerably less active”. For the same compound, the “Minimal Inhibitory Concentration” value (S. faecalis; strain 71A01) was > 100, the “Minimal Inhibitory Concentration” value (S. faecalis; strain CCS1-03) was > 100 and the “Minimal Inhibitory Concentration” value (S. faecalis; strain P1051C4) was > 100. For the same compound, the “Minimal Inhibitory Concentration” value (C. perfringens; strain A82-1) was > 100, the “Minimal Inhibitory Concentration” value (C. perfringens; strain A83-3) was 0.8 and the “Minimal Inhibitory Concentration” value (C. perfringens; strain A83-RKP) was 1.6. The “Minimal Inhibitory Concentration” value (C. perfringens; strain CCS2-09) was > 100, the “Minimal Inhibitory Concentration” value (C. perfringens; strain P1051C3) was 100 and the “Minimal Inhibitory Concentration” value (C. perfringens; strain P1083C1) was 100. The “Minimal Inhibitory Concentration” value (C. perfringens; strain RF1B04) was 0.8, the “Minimal Inhibitory Concentration” value (C. perfringens; strain UC9452) was 6.3 and the “Minimal Inhibitory Concentration” value (E. ruminantium) was 12.5. For the same compound, the “Minimal Inhibitory Concentration” value (R. flavefaciens; strain C94) was 25.0, the “Minimal Inhibitory Concentration” value (R. flavefaciens; strain FD1) was 25.0 and the “Minimal Inhibitory Concentration” value (R. amylophilus) was 3.1. For the same compound, the “Minimal Inhibitory Concentration” value (B. fibrisolvens; strain 49) was 50.0, the “Minimal Inhibitory Concentration” value (B. fibrisolvens; strain D1) was 25.0 and the “Minimal Inhibitory Concentration” value (F. necrophorum; strain FN4070) was 100. The “Minimal Inhibitory Concentration” value (F. necrophorum; strain FN5052) was > 100, the “Minimal Inhibitory Concentration” value (B. thetaiotaomicron) was > 100 and the “Minimal Inhibitory Concentration” value (B. fragilis) was > 100. For the same compound, the “Minimal Inhibitory Concentration” value (L. multiparus) was > 100.

With `C=C(NC(=O)c1ccc2c(n1)-c1nc(oc1C)C(C)NC(=O)c1csc(n1)C(C)NC(=O)c1nc(oc1C)CNC(=O)C(C(C)C)NC(=O)c1csc-2n1)C(N)=O` (centres unmarked) [Antibiotic 10381w] the “Minimal Inhibitory Concentration” value (M. elsdenii) was > 100, the “Minimal Inhibitory Concentration” value (S. bovis) was > 100 and the “Minimal Inhibitory Concentration” value (S. hyodysenteriae; strain 16-4) was > 100. For the same compound, the “Minimal Inhibitory Concentration” value (S. hyodysenteriae; strain B204) was > 100, the “Minimal Inhibitory Concentration” value (S. ruminantium; strain GA31) was 1.6 and the “Minimal Inhibitory Concentration” value (S. ruminantium; strain GA192) was 12.5. The “Minimal Inhibitory Concentration” value (P. ruminicola) was < 0.2, the “Minimal Inhibitory Concentration” value (E. lentum) was 25.0 and the “in vitro activity ranking” value [1] was “considerably less active”. For the same compound, the “Minimal Inhibitory Concentration” value (S. faecalis; strain 71A01) was > 100, the “Minimal Inhibitory Concentration” value (S. faecalis; strain CCS1-03) was > 100 and the “Minimal Inhibitory Concentration” value (S. faecalis; strain P1051C4) was > 100. The “Minimal Inhibitory Concentration” value (C. perfringens; strain A82-1) was > 100, the “Minimal Inhibitory Concentration” value (C. perfringens; strain A83-3) was 12.5 and the “Minimal Inhibitory Concentration” value (C. perfringens; strain A83-RKP) was > 100. For the same compound, the “Minimal Inhibitory Concentration” value (C. perfringens; strain CCS2-09) was > 100, the “Minimal Inhibitory Concentration” value (C. perfringens; strain P1051C3) was > 100 and the “Minimal Inhibitory Concentration” value (C. perfringens; strain P1083C1) was > 100. For the same compound, the “Minimal Inhibitory Concentration” value (C. perfringens; strain RF1B04) was 100, the “Minimal Inhibitory Concentration” value (C. perfringens; strain UC9452) was > 100 and the “Minimal Inhibitory Concentration” value (E. ruminantium) was 25. The “Minimal Inhibitory Concentration” value (R. flavefaciens; strain C94) was 100, the “Minimal Inhibitory Concentration” value (R. flavefaciens; strain FD1) was > 100 and the “Minimal Inhibitory Concentration” value (R. amylophilus) was > 100. For the same compound, the “Minimal Inhibitory Concentration” value (B. fibrisolvens; strain 49) was > 100, the “Minimal Inhibitory Concentration” value (B. fibrisolvens; strain D1) was > 100 and the “Minimal Inhibitory Concentration” value (F. necrophorum; strain FN4070) was > 100. The “Minimal Inhibitory Concentration” value (F. necrophorum; strain FN5052) was > 100, the “Minimal Inhibitory Concentration” value (B. thetaiotaomicron) was > 100 and the “Minimal Inhibitory Concentration” value (B. fragilis) was > 100. The “Minimal Inhibitory Concentration” value (L. multiparus) was > 100.

`C=C(NC(=O)C(=C)NC(=O)C(=C)NC(=O)c1ccc2c(n1)-c1nc(oc1C)C(C)NC(=O)c1csc(n1)C(C)NC(=O)c1nc(oc1C)CNC(=O)C(C(C)C)NC(=O)c1csc-2n1)C(N)=O` (centres unmarked) [Antibiotic 10381x] was tested, and the M.I.C. (M. elsdenii; [2]) was > 100.0 µg/mL, the “Minimal Inhibitory Concentration” value (M. elsdenii) was > 100 and the M.I.C. (S. bovis; [2]) was 25.0 µg/mL. For the same compound, the “Minimal Inhibitory Concentration” value (S. bovis) was > 100, the “Minimal Inhibitory Concentration” value (S. hyodysenteriae; strain 16-4) was > 100 and the “Minimal Inhibitory Concentration” value (S. hyodysenteriae; strain B204) was > 100. The M.I.C. (S. ruminantium; strain GA31) was > 100.0 µg/mL, the “Minimal Inhibitory Concentration” value (S. ruminantium; strain GA31) was 6.3 and the M.I.C. (S. ruminantium; strain GA192) was > 100.0 µg/mL. For the same compound, the “Minimal Inhibitory Concentration” value (S. ruminantium; strain GA192) was 6.3, the M.I.C. (P. ruminicola; [2]) was 0.2 µg/mL and the “Minimal Inhibitory Concentration” value (P. ruminicola) was 12.5. The “Minimal Inhibitory Concentration” value (E. lentum) was < 0.2, the “in vitro activity ranking” value [1] was “considerably less active” and the M.I.C. (S. faecalis; strain 71A01) was 100.0 µg/mL. For the same compound, the “Minimal Inhibitory Concentration” value (S. faecalis; strain 71A01) was > 100, the M.I.C. (S. faecalis; strain CCS1-03) was 50.0 µg/mL and the “Minimal Inhibitory Concentration” value (S. faecalis; strain CCS1-03) was > 100. For the same compound, the M.I.C. (S. faecalis; strain P1051C4) was 50.0 µg/mL, the “Minimal Inhibitory Concentration” value (S. faecalis; strain P1051C4) was > 100 and the M.I.C. (C. perfringens; strain 71A02) was 6.3 µg/mL. For the same compound, the M.I.C. (C. perfringens; strain A82-1) was 50.0 µg/mL, the “Minimal Inhibitory Concentration” value (C. perfringens; strain A82-1) was > 100 and the M.I.C. (C. perfringens; strain A83-3) was 6.3 µg/mL. For the same compound, the “Minimal Inhibitory Concentration” value (C. perfringens; strain A83-3) was 25.0, the M.I.C. (C. perfringens; strain A83-RKP) was 1.6 µg/mL and the “Minimal Inhibitory Concentration” value (C. perfringens; strain A83-RKP) was 50.0. For the same compound, the M.I.C. (C. perfringens; strain CCS1-11) was 50.0 µg/mL, the M.I.C. (C. perfringens; strain CCS2-09) was 1.6 µg/mL and the “Minimal Inhibitory Concentration” value (C. perfringens; strain CCS2-09) was 100. For the same compound, the M.I.C. (C. perfringens; strain P1051C3) was > 100.0 µg/mL, the “Minimal Inhibitory Concentration” value (C. perfringens; strain P1051C3) was > 100 and the M.I.C. (C. perfringens; strain P1083C1) was 1.6 µg/mL. For the same compound, the “Minimal Inhibitory Concentration” value (C. perfringens; strain P1083C1) was 100, the M.I.C. (C. perfringens; strain RF1B04) was 3.1 µg/mL and the “Minimal Inhibitory Concentration” value (C. perfringens; strain RF1B04) was 50.0. The M.I.C. (C. perfringens; strain UC9452) was 6.3 µg/mL, the “Minimal Inhibitory Concentration” value (C. perfringens; strain UC9452) was 50.0 and the M.I.C. (E. ruminantium; [2]) was 3.1 µg/mL. The “Minimal Inhibitory Concentration” value (E. ruminantium) was 100, the M.I.C. (R. flavefaciens; strain C94) was 3.1 µg/mL and the “Minimal Inhibitory Concentration” value (R. flavefaciens; strain C94) was > 100. The M.I.C. (R. flavefaciens; strain FD1) was 6.3 µg/mL, the “Minimal Inhibitory Concentration” value (R. flavefaciens; strain FD1) was 100 and the M.I.C. (R. amylophilus; [2]) was > 100.0 µg/mL. For the same compound, the “Minimal Inhibitory Concentration” value (R. amylophilus) was 25.0, the M.I.C. (B. fibrisolvens; strain 49) was 1.6 µg/mL and the “Minimal Inhibitory Concentration” value (B. fibrisolvens; strain 49) was > 100. For the same compound, the M.I.C. (B. fibrisolvens; strain D1) was 3.1 µg/mL, the “Minimal Inhibitory Concentration” value (B. fibrisolvens; strain D1) was 100 and the M.I.C. (F. necrophorum; strain FN4070) was > 100.0 µg/mL. For the same compound, the “Minimal Inhibitory Concentration” value (F. necrophorum; strain FN4070) was > 100, the M.I.C. (F. necrophorum; strain FN5052) was > 100.0 µg/mL and the “Minimal Inhibitory Concentration” value (F. necrophorum; strain FN5052) was > 100. For the same compound, the M.I.C. (B. thetaiotaomicron; [2]) was 50.0 µg/mL, the “Minimal Inhibitory Concentration” value (B. thetaiotaomicron) was > 100 and the M.I.C. (B. fragilis; [2]) was 100.0 µg/mL. For the same compound, the “Minimal Inhibitory Concentration” value (B. fragilis) was > 100, the M.I.C. (L. multiparus; [2]) was 6.3 µg/mL and the “Minimal Inhibitory Concentration” value (L. multiparus) was > 100.
